Assay results published in ChEMBL document CHEMBL4414669, “Structural Characterization and Anti-infective Activity of 9,10-Seco-29-norcycloartane Glycosides Isolated from the Flowers of the Peruvian Medicinal Plant Cordia lutea” (J Nat Prod, 2019).
Converted amounts (≈) assume the structure as drawn.

Experiments:
[1] = system: Helicobacter pylori; assay: Antibacterial activity against Helicobacter pylori CIP 103995 incubated for 72 hrs under microaerophilic conditions by broth microdilution method; assay type: functional; details: CIP 103995, 72 h
[2] = system: Staphylococcus aureus; assay: Antibacterial activity against Staphylococcus aureus ATCC 25923 incubated for 24 hrs by broth microdilution method; assay type: functional; details: ATCC 25923, 24 h
[3] = system: Escherichia coli; assay: Antibacterial activity against Escherichia coli ATCC 25922 incubated for 24 hrs by broth microdilution method; assay type: functional; details: ATCC 25922, 24 h
[4] = system: Pseudomonas aeruginosa; assay: Antibacterial activity against Pseudomonas aeruginosa ATCC 27853 incubated for 24 hrs by broth microdilution method; assay type: functional; details: ATCC 27853, 24 h
[5] = system: Plasmodium falciparum; assay: Antiplasmodial activity against chloroquine-resistant Plasmodium falciparum FcB1 infected in RBC (unknown origin) incubated for 48 hrs by SYBR green dye based fluorescence analysis; assay type: functional, organism-based; details: FcB1, 48 h
[6] = system: Leishmania infantum; assay: Antileishmanial activity against Leishmania infantum MHOM/MA/67/ITMAP-263 axenic amastigotes assessed as inhibition of parasitic metabolic activity incubated for 48 hrs by steady Glow reagent based luminescence assay; assay type: functional, organism-based; details: MHOM/MA/67/ITMAP-263, 48 h
[7] = Cytotoxicity against mouse RAW264.7 cells assessed as reduction in cell viability incubated for 48 hrs by MTT assay; assay type: cell-based

SMILES | MIC [1] [µg/mL] | MIC [2] [µg/mL] | MIC [3] [µg/mL] | MIC [4] [µg/mL] | IC50 [5] [µM] | IC50 [6] [µM] | CC50 at 48 h [7] [µM]
C=C(C(C)C)[C@H](O)C[C@@H](C)[C@H]1CC[C@@]2(C)[C@@H]3CC[C@H]4[C@H](C)[C@@H](O[C@@H]5OC[C@@H](O)[C@H](O)[C@H]5O)CC[C@]4(O)CC3=CC[C@]12C | 15.6 (≈ 26.4 µM) | 62.5 (≈ 106 µM) | > 125 | > 125 | > 150 | 5 | 24.2
C/C=C(\C(C)C)[C@H](O)C[C@@H](C)[C@H]1CC[C@@]2(C)[C@@H]3CC[C@H]4[C@H](C)[C@@H](O[C@@H]5O[C@@H](C)[C@H](O)[C@@H](O)[C@H]5O)CC[C@]4(O)CC3=CC[C@]12C | 31.3 (≈ 50.6 µM) | > 125 | > 125 | > 125 | 61.3 | 5.2 | 21.9
C=C(C(C)C)[C@H](O)C[C@@H](C)[C@H]1CC[C@@]2(C)[C@@H]3CC[C@H]4[C@H](C)[C@@H](O[C@@H]5OC[C@H](O)[C@H](O)[C@H]5O)CC[C@]4(O)CC3=CC[C@]12C | 15.6 (≈ 26.4 µM) | 31.3 (≈ 53 µM) | > 125 | > 125 | 52.4 | 7.7 | 26.6
C/C=C(\C(C)C)[C@H](O)C[C@@H](C)[C@H]1CC[C@@]2(C)[C@@H]3CC[C@H]4[C@H](C)[C@@H](O[C@@H]5OC[C@H](O)[C@H](O)[C@H]5O)CC[C@]4(O)CC3=CC[C@]12C | 15.6 (≈ 25.8 µM) | 31.3 (≈ 51.7 µM) | > 125 | > 125 | 53.7 | 6.3 | 19.6
C=C(C(C)C)[C@H](O)C[C@@H](C)[C@H]1CC[C@@]2(C)[C@@H]3CC[C@H]4[C@H](C)[C@@H](O[C@@H]5O[C@@H](C)[C@H](O)[C@@H](O)[C@H]5O)CC[C@]4(O)CC3=CC[C@]12C | 31.3 (≈ 51.7 µM) | > 125 | > 125 | > 125 | 55 | 6.7 | 35.1
C/C=C(\C(C)C)[C@H](O)C[C@@H](C)[C@H]1CC[C@@]2(C)[C@@H]3CC[C@H]4[C@H](C)[C@@H](O[C@@H]5OC[C@@H](O)[C@H](O)[C@H]5O)CC[C@]4(O)CC3=CC[C@]12C | 15.6 (≈ 25.8 µM) | > 125 | > 125 | > 125 | 46.9 | 5.2 | 30.3
C[C@@H]1[C@H](O)[C@@H](C)/C=C/C=C/C=C/C=C/C=C/C=C/C=C/[C@H](O[C@@H]2O[C@H](C)[C@@H](O)[C@H](N)[C@@H]2O)C[C@@H]2O[C@](O)(C[C@@H](O)C[C@@H](O)[C@H](O)CC[C@@H](O)C[C@@H](O)CC(=O)O[C@H]1C)C[C@H](O)[C@H]2C(=O)O [AMPHOTERICIN B] | – | – | – | – | – | 0.07 | –
CC[C@H]1OC(=O)[C@H](C)[C@@H](O[C@H]2C[C@@](C)(OC)[C@@H](O)[C@H](C)O2)[C@H](C)[C@@H](O[C@@H]2O[C@H](C)C[C@H](N(C)C)[C@H]2O)[C@](C)(OC)C[C@@H](C)C(=O)[C@H](C)[C@@H](O)[C@]1(C)O [CLARITHROMYCIN] | 0.01 (≈ 0.0134 µM) | – | – | – | – | – | –
COc1cccc2c1C(=O)c1c(O)c3c(c(O)c1C2=O)C[C@@](O)(C(=O)CO)C[C@@H]3O[C@H]1C[C@H](N)[C@H](O)[C@H](C)O1 [DOXORUBICIN] | – | – | – | – | – | – | 0.8
CN(C)[C@@H]1C(O)=C(C(N)=O)C(=O)[C@@]2(O)C(O)=C3C(=O)c4c(O)cccc4[C@@](C)(O)[C@H]3C[C@@H]12 [TETRACYCLINE] | – | 0.5 (≈ 1.13 µM) | 2 (≈ 4.5 µM) | 16 (≈ 36 µM) | – | – | –
